Data taken from US6017919A, “Compounds and pharmaceutical use thereof” (Japan Tobacco Inc., priority 1996, dated 2000).
Where a name gives a salt, the structure may show the parent alone. Read-outs that look alike come from different tables or passages of the source.

How the values were obtained:
[1] = molecular target: T1, cannabinoid central type (CB1) receptor (Rattus norvegicus, UniProt P20272); test: Binding assay, cannabinoid central type receptor (CB1), rat cerebellar membrane fraction, [3H]Win55212-2
T1 construct: rat cerebellar membrane fraction and spleen cells were respectively used; from tissue; host or cells: rat cerebellar membrane fraction (male SD rats, 7-9 weeks old)
Method: (§1) [I] Binding Assay (in vitro)
(§2) As the sample rich in cannabinoid central type (CB1) and peripheral type (CB2) receptors, rat cerebellar membrane fraction and spleen cells were respectively used (male SD rats, 7-9 weeks old). A sample (cerebellar membrane fraction: 50 μg/ml or spleen cells: 1×10^7 cells/ml), labeled ligand ([^3 H]Win55212-2, 2 nM) and unlabeled Win55212-2 or a test compound were plated in round bottom 24 well plates, and incubated at 30° C. for 90 min in the case of cerebellar membrane fraction, and at 4° C. for 360 min in the case of spleen cells. As the assay buffer, 50 mM Tris solution containing 0.2% BSA was used for cerebellar membrane fraction, and 50 mM Tris-HBSS containing 0.2% BSA was used for spleen cells. After incubation, the samples were filtrated through a filter (Packard, Unifilter 24 GF/B) and dried. A scintillation solution (Packard, Microsint-20) was added, and the radioactivity of the samples was determined (Packard, Top count A9912V). The non-specific binding was determined by adding an excess Win55212-2 (1 μM), and specific binding was calculated by subtracting non-specific binding from the total binding obtained by adding the labeled ligand alone. The test compounds were dissolved in DMSO to the final concentration of DMSO of 0.1%. IC50 was determined from the proportion of the specifically-bound test compounds, and the Ki value of the test compounds was calculated from IC50 and Kd value of [^3 H]Win55212-2.

[2] = molecular target: T2, cannabinoid peripheral type (CB2) receptor (Rattus norvegicus, UniProt Q9QZN9); test: Binding assay, cannabinoid peripheral type receptor (CB2), rat spleen cells, [3H]Win55212-2; settings: for C/S: ratio of Ki central receptor (C) to Ki peripheral receptor (S)
T2 construct: rat cerebellar membrane fraction and spleen cells were respectively used; from tissue; host or cells: rat spleen cells (male SD rats, 7-9 weeks old)
T2 sequence (Q9QZN9 1-360): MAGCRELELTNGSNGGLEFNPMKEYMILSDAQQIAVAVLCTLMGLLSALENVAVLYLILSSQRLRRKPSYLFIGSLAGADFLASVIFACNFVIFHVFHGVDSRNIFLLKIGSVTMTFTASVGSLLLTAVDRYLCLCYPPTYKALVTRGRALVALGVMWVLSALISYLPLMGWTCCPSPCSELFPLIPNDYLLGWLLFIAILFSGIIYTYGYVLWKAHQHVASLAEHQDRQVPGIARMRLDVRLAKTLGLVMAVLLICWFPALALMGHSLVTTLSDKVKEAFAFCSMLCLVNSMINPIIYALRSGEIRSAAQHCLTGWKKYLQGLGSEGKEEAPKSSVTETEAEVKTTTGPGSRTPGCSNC
Method: as §1, §2

[3] = tested on: Carageenan-induced paw edema; test: Carageenan-induced paw edema model; assay type: in vivo, female ddy mice; settings: Mus musculus; po, mice, 1 h before carageenan; paw volume 3 h later
Method: [II] Carageenan-induced paw edema model (in vivo)
Female ddy mice (6-8 weeks old) were used. […] One hour after the administration, 50 μL of 1% carageenan dissolved in physiological saline was intradermally injected into the right foot pad. Three hours later, the volume of the right paw was measured and compared with that measured before the carageenan injection.
(§3) In both [II] and [III], the test compounds were dissolved in DMSO and used upon dilution with olive oil (final concentration of DMSO 1%).

[4] = tested on: Sheep red blood cell-induced delayed type hypersensitivity; test: Sheep red blood cell (SRBC)-induced delayed type hypersensitivity (DTH) model; assay type: in vivo, female ddy mice; settings: Mus musculus, Erythrocyte; po, mice, 1 h before SRBC challenge; paw volume 24 h after induction
Method: [III] Sheep red blood cell (SRBC)-induced delayed type hypersensitivity (DTH) model (in vivo)
Female ddy mice (6-8 weeks old) were used. On day 1, SRBC 10^7 cells were intradermally injected into the left foot pad of the mice (40 μl/foot) to immunize the mice. Five days later, the test compounds dissolved in olive oil were orally administered at 10 ml/kg. One hour later, SRBC 10^8 cells were intradermally injected into the right foot pad to induce the response. Twenty-four hours after the induction, the volume of the both paws was measured, and edema ratio was calculated by […].
as §3

[5] = rat cerebellar membrane fraction, [3H]Win55212-2 2 nM, 30° C. 90 min, read-out: Ki value, Central receptor (C)
[6] = rat spleen cells, [3H]Win55212-2 2 nM, 4° C. 360 min, read-out: Ki value, Peripheral receptor (S)

T1 sequence (P20272 whole entry): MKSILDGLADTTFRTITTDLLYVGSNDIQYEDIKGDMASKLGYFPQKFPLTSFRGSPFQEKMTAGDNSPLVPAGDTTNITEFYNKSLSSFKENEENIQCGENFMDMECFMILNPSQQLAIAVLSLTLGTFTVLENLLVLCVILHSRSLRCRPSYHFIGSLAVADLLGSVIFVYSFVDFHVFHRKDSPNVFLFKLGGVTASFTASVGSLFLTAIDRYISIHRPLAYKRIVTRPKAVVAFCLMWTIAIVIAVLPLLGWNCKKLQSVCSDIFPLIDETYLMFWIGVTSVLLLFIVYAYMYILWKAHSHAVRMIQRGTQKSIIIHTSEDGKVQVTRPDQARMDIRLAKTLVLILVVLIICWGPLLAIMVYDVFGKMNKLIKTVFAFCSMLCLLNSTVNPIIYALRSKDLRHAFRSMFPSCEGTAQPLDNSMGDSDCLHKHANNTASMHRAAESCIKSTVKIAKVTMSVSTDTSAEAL

| Structure (SMILES) | Ki [1, 5] | C/S [2] | ED50 [3] | ED50 [4] | Ki [1] | Ki [2, 6] | Ki [2] | Ki ([1]; read-out: Ki value, Central receptor (C), rat cerebellar membrane fraction, [3H]Win55212-2 2 nM, 30° C. 90 min) |
| --- | --- | --- | --- | --- | --- | --- | --- | --- |
| CCCCCOc1cc(C(=O)NCCc2ccc(O)cc2)ccc1OC [Example 2-1, N-[2-(4-hydroxyphenyl)ethyl]-(4-methoxy-3-pentyloxy)benzamide] | 1400 nM | 560 | 0.04 mg/kg | 0.14 mg/kg |  |  |  |  |
| CCCCCOc1ccc(C(=O)NCCc2ccc(N)cc2)cc1SCCCCC [Example 2-52, N-[2-(4-aminophenyl)ethyl]4-pentyloxy-3-pentylthiobenzamide] |  | > 2300 | 1.85 mg/kg | 0.58 mg/kg | > 4300 nM |  |  |  |
| CCCCCOc1ccc(C(=O)NCCc2ccc(O)cc2)cc1OCCCCC [Example 2-3] |  | > 8250 | 0.17 mg/kg | 0.053 mg/kg | > 3300 nM |  |  |  |
| CCCCCNc1c(OC)ccc2c1CN(CCc1ccc(O)cc1)C2=O [Example 7-31, 2-[2-(4-hydroxyphenyl)ethyl]-5-methoxy-4-pentylamino-2,3-dihydroindol-1-one] |  | 125 | 0.012 mg/kg | 0.08 mg/kg | 11 nM |  |  |  |
| CCCCCOc1c(OC)ccc2c1C(=O)N(CCc1ccc(O)cc1)C2=O [Example 7-4, 2-[2-(4-hydroxyphenyl)ethyl]-5-methoxy-4-pentyloxyisoindole-1,3-dione] | 1000 nM | 137 | 1.6 mg/kg | 1.6 mg/kg |  |  |  |  |
| CCCCCOc1cc(/C=C/C(=O)N[C@@H](Cc2ccc(O)cc2)C(=O)OC)ccc1OC [Example 1-22] |  | 343 | 0.14 mg/kg | 0.77 mg/kg | 480 nM | 1.4 nM |  |  |
| CCCCCOc1c(OC)ccc2c1CN(CCc1ccc(O)cc1)C2=O [Example 7-5, 2-[2-(4-hydroxyphenyl)ethyl]-5-methoxy-4-pentyloxy-2,3-dihydroisoindol-1-one] |  | > 227 | 0.014 mg/kg | 0.038 mg/kg | > 2500 nM |  |  |  |
| CCCCCOc1cc(/C=C/C(=O)NCCc2ccc(O)cc2)ccc1OC [Example 1-1] |  | 48 | 1 mg/kg | 1.52 mg/kg | 230 nM |  |  |  |
| CCCCCOc1c(OC)ccc2c(=O)n(CCc3ccc(N)cc3)c(=O)[nH]c12 [Example 7-40, 3-[2-(4-aminophenyl)ethyl]-7-methoxy-8-pentyloxy-1H-quinazoline-2,4-dione] |  | > 30 | 0.016 mg/kg |  | 109 nM | < 3.7 nM |  |  |
| CCCCCOc1c(OC)ccc2c1CCN(CCc1ccc(N)cc1)C2=O [Example 7-38, hydrochloride] |  | 22 | 0.11 mg/kg | 0.011 mg/kg | 220 nM |  | 9.9 nM |  |
| CCCCCOc1cc(OC)ccc1/C=C/C(=O)N1CCOCC1 [Example 8-2, (E)-[3-(4-methoxy-2-pentyloxyphenyl)-1-oxo-2-propenyl]-4-morpholine] |  | 67 | 0.5 mg/kg | > 10 mg/kg | 560 nM | 8.4 nM |  |  |
| CCCCOc1cc(C(=O)NCCc2ccc(O)cc2)ccc1OC [Example 2-7] |  | 263 | 2.28 mg/kg | 2.35 mg/kg | > 2500 nM | 9.5 nM |  |  |
| CCCCCSc1cc(/C=C/C(=O)NCCc2ccc(O)cc2)ccc1OC [Example 1-34, N-[2-(4-hydroxyphenyl)ethyl]-3-(4-methoxy-3-pentylthiophenyl)acrylamide] |  | 845 | 0.59 mg/kg | 1.95 mg/kg | 930 nM |  |  |  |
| CCCCCOc1cc(C(=O)NCCc2ccc(O)cc2)ccc1OCC [Example 2-2] |  | 1000 | 0.51 mg/kg | 0.9 mg/kg | 1100 nM | 1.1 nM |  |  |
| CCCCCNc1cc(/C=C/C(=O)NCCc2ccc(N)cc2)ccc1OC [Example 1-35, N-[2-(4-aminophenyl)ethy]-3-(4methoxy-3-pentylaminophenyl)-acrylamide] |  | 16 | 0.12 mg/kg | 0.063 mg/kg | 160 nM | 10 nM |  |  |
| CCCCCOc1c(OC)ccc2c(=O)n(CCc3ccc(O)cc3)ccc12 [Example 7-19-1] | 200 nM | 54 | 0.092 mg/kg | 0.033 mg/kg |  |  |  |  |
| CCCCCOc1cc(C(=O)NC2CCc3cc(O)c(O)cc3C2)ccc1OC (stereo not drawn) [Example 2-26] |  | > 139 | > 10 mg/kg | 3.75 mg/kg | > 2500 nM |  |  |  |
| CCCCCOc1cc(C(=O)NCCc2cccc(O)c2)ccc1OC [Example 2-13] |  | 849 | 3.2 mg/kg | 5.6 mg/kg | 5600 nM | 6.6 nM |  |  |
| CCCCCOc1cc(C(=O)NCCc2ccncc2)ccc1OC [Example 2-16] | > 4300 nM | > 59 | 1.1 mg/kg | 1.95 mg/kg |  |  |  |  |
| CCCCCOc1c(OC)ccc2c1CN(CCc1ccc(N)cc1)C2=O [Example 7-37, 2-[2-(4-aminophenyl)ethyl]-5-methoxy-4-pentyloxy-2,3-dihydroisoindol-1-one] | 1300 nM | 93 | 0.49 mg/kg | 0.058 mg/kg |  |  |  |  |
| CCCCCOc1ccc2c(c1OCCCCC)CN(CCc1ccc(N)cc1)C2=O [Example 7-34, 2-[2-(4-aminophenyl)ethyl]-4,5-bispentyloxy-2,3-dihydroisoindol-1-one] |  | 3000 | 0.29 mg/kg | 0.012 mg/kg | 330 nM |  |  |  |
| CCCCCCOc1cc(C(=O)NCCc2ccc(O)cc2)ccc1OC [Example 2-8] |  | 270 | 0.73 mg/kg | 1.45 mg/kg | 1000 nM | 3.7 nM |  |  |
| CCCCOc1cc(/C=C/C(=O)NCCc2ccc(O)cc2)ccc1OC [Example 1-4] |  | 125 | 0.55 mg/kg | 0.71 mg/kg | 960 nM | 7.7 nM |  |  |
| CCCCCOc1ccc2c(c1OCCCCC)CN(CCc1ccc([N+](=O)[O-])cc1)C2=O [Example 7-30, 4,5-dipentyloxy-2-[2-(4-nitrophenyl)ethyl]-2,3-dihydroisoindol-1-one] |  | 1440 | < 0.01 mg/kg | 0.021 mg/kg | 2600 nM | 1.8 nM |  |  |
| CCCCCOc1c(OC)ccc2c1CCN(CCc1ccc(O)cc1)C2=O [Example 7-24, 2-[2-(4-hydroxyphenyl)ethyl]-6-methoxy-5-pentyloxy-3,4dihydro-2H-isoquinolin-1-one] |  | > 1389 | 0.028 mg/kg | 0.027 mg/kg | > 2500 nM |  |  |  |
| CCCCCOc1c(OC)ccc2c(=O)n(CCc3ccncc3)ccc12 [Example 7-20] | 400 nM | 48 | 0.195 mg/kg | 0.084 mg/kg |  |  |  |  |
| CCCCCOc1c(OC)ccc(C2=NC(C)(C)CO2)c1CO [Example 6-4] |  | 59 | 0.25 mg/kg | 10 mg/kg | 650 nM | 11 nM |  |  |
| CCCCCOc1cc(/C=C/C(=O)NCCc2ccc(O)cc2)ccc1OCC [Example 1-2] |  | 222 | > 1 mg/kg | 0.48 mg/kg | 400 nM | 1.8 nM |  |  |
| CCCCCNc1cc(C(=O)NCCc2ccc(O)cc2)ccc1OC [Example 2-6] |  | 455 | 0.3 mg/kg | 0.72 mg/kg |  | 1.1 nM |  | 500 nM |
